According to patent US4652636A, “Pentene-diphenyl-diglucoside containing compound” (priority 1982, dated 1987):

How the values were obtained:
[1] = tested on: Mouse; assay: Acute toxicity evaluation of (I), mouse; format: in vivo; conditions: for Mortality (Range %): dead/treated
Protocol: (§1) Solutions of (I) in distilled water were prepared with the required concentration. Administered volumes were kept constant at the rate of 10 cm^3 per kg. In each case equal numbers of males and females were treated with a single dose. All animals were observed over 7 days for signs of toxic and/or pharmaco-dynamic effects.
(§2) A necropsy was performed on all surviving animals.

[2] = Acute toxicity evaluation of (I), mouse; format: in vivo; conditions: in vivo, ip, mouse, intraperitoneal, dead/treated (range %)
Protocol: as §1, §2

[3] = tested on: Mouse melacoma--Mel B1-6; assay: In vitro cytostatic cytotoxic effects, Mel B1-6; format: cell-based; conditions: Mel B1-6, I 40 ng, 37° C.
Protocol: (§3) "In vitro" cytostatic cytotoxic effects with Hypoxis rooperi extracts (example 2(e)(i)) and Compound I Four different cell culture types were used:
ii. Mouse melacoma--Mel B1-6
(§4) Procedure: Trypsinized cells were harvested into MEM and suitably diluted to supply about 2×10^5 cells per cm^3. A culture flask containing 4,5 cm^3 of culture medium was seeded with 0.5 cm^3 of the prepared cell suspension. This cell culture was then incubated at 37° C. for 24 hours before the test substances dissolved in 0.5 cm^3 of the culture medium were added.

[4] = tested on: Heha 229; assay: In vitro cytostatic cytotoxic effects, Heha 229; format: cell-based; conditions: Heha 229, I 40 ng, 37° C.
Protocol: as §3, §4

[5] = tested on: Human foetal foreskin fibroblasts--HFSF; assay: In vitro cytostatic cytotoxic effects, HFSF (non-malignant); format: cell-based; conditions: I 40 ng, 37° C.
Protocol: as §3
iv. Human foetal foreskin fibroblasts--HFSF (non-malignant)
as §4

[6] = tested on: Rabbits; assay: Acute toxicity evaluation of (I), rabbits; format: in vivo, rabbit; conditions: intravenous; for Mortality (Range %): dead/treated
Protocol: as §1, §2

[7] = tested on: pregnant mouse foeti; assay: Foetotoxic-teratogenic effect of (I) in pregnant mice; format: in vivo, mouse (Swiss Webster); conditions: for No of foeti / No of implantation sites / No of live foeti / No of malformations: 6 mice
Protocol: Two groups of six fully impregnated mice (Swiss Webster offspring) were treated orally with aqueous solutions of (I) once per day (10 ml/kg) starting day 1 through to day 8 of the gestation period. On day 20 of the pregnancies the mice were lightly anaethetised with diethyl ether and the uterus exposed by caesarian section. The total number of implantation sites were counted. All foeti were removed and examined for
(b) macroscopic gross anatomical abnormalities of limbs and head.

[8] = tested on: Mouse sarcoma--Ms 52 B; assay: In vitro cytostatic cytotoxic effects, MS 52 B; format: cell-based; conditions: I 40 ng, 37° C.
Protocol: as §3
i. Mouse sarcoma--Ms 52 B
as §4

With OC[C@H]1O[C@@H](Oc2ccc(C#CC/C=C/c3ccc(O[C@@H]4O[C@H](CO)[C@@H](O)[C@H](O)[C@H]4O)c(O)c3)cc2O)[C@H](O)[C@@H](O)[C@@H]1O [Compound I] the “direct toxic effects (conclusion)” value ([1]; acute toxicity, single dose) was “low degree of direct toxic effects”, the “Mortality (Range %)” value ([1]; mouse, intraperitoneal, 250 mg/kg) was 0/10 and the “Mortality (Range %)” value ([1]; mouse, intraperitoneal, 500 mg/kg) was 0/20. The “Remarks: signs of discomfort” value ([1]; mouse, intraperitoneal, all animals, increasing with dose) was “discomfort”, the “Mortality (Range %)” value ([1]; mouse, oral, 1000 mg/kg) was 0/20 and the “Mortality (Range %)” value ([1]; mouse, oral, 2000 mg/kg) was 0/20. For the same molecule, the “Mortality (Range %)” value ([1]; mouse, oral, 4000 mg/kg) was 0/20, the “Remarks: macroscopic lesions” value ([1]; mouse, oral, 1000-4000 mg/kg, any animal) was “No macroscopic” and the “macroscopic lesions on necropsy” value ([1]; surviving animals) was “No macroscopic lesions were observed”. It also gave a mortality at 168 h ([2]; 1000 mg/kg) of 16.7%, a mortality at 168 h ([2]; 2000 mg/kg) of 90% and a Confluency ([3]; 24 hours) of 40%. For the same molecule, the Confluency ([3]; 48 hours) was 30%, the Confluency ([3]; 72 hours) was 40% and the Confluency ([3]; 96 hours) was 40%. The Confluency ([3]; 120 hours) was 30%, the Confluency ([4]; 24 hours) was 50% and the Confluency ([4]; 48 hours) was 60%. It also gave a Confluency ([4]; 72 hours) of 50%, a Confluency ([4]; 96 hours) of 30% and a Confluency ([5]; 24 hours) of 40%. The Confluency ([5]; 48 hours) was 50%, the Confluency ([5]; 72 hours) was 50% and the Confluency ([5]; 96 hours) was 40%. For the same molecule, the “Mortality (Range %)” value ([6]; 50 mg/kg) was 0/2, the “Mortality (Range %)” value ([6]; 100 mg/kg) was 0/2 and the “Remarks: macroscopic lesions” value ([6]; 50 and 100 mg/kg) was “no macropscopic”. For the same molecule, the “Remarks: thrombophlebitis at the injection site” value ([6]; 50 and 100 mg/kg) was “No thrombophlebitis”, the “Remarks: visible effects” value ([6]; 50 and 100 mg/kg) was “No visible effects” and the No of foeti ([7]; 20 mg/kg oral) was 52. The “No of implantation sites” value ([7]; 20 mg/kg oral) was 58, the “No of live foeti” value ([7]; 20 mg/kg oral) was 50 and the No of malformations ([7]; 20 mg/kg oral) was 0. The No of foeti ([7]; 100 mg/kg oral) was 49, the “No of implantation sites” value ([7]; 100 mg/kg oral) was 58 and the “No of live foeti” value ([7]; 100 mg/kg oral) was 45. For the same molecule, the No of malformations ([7]; 100 mg/kg oral) was 3 (2?), the “abnormally reduced growth rate of the foeti” value ([7]; any of the treated groups) was “no indications of abnormally reduced growth rate of the foeti” and the teratogenic effects ([7]; at the doses administered) was “unlikely”. For the same molecule, the “adverse effects in the treated mother animals” value ([7]; treated mother animals) was “No adverse effects were detected”, the Confluency ([8]; 24 hours) was 40% and the Confluency ([8]; 48 hours) was 20%. It also gave a Confluency ([8]; 72 hours) of 20% and a Confluency ([8]; 96 hours) of 20%.
